Test results from US20240301218A1, “Polymeric Antifouling Coating with Antimicrobial Peptides” (THE UNIVERSITY OF BRITISH COLUMBIA, priority 2021, published 2024).
No end group written: not given here.

Columns and labels:
E. coli = test system: E. coli
From the text: (§1) Ultra-high molecular weight poly(N,N-dimethylacrylamide) (uhPDMA) and high molecular weight poly(N,N-dimethylacrylamide) (hPDMA) were synthesized by atom transfer radical polymerization 391. N-(3-Aminopropyl) methacrylamide hydrochloride (APMA) (98%) was purchased from Polysciences™, USA and was used as supplied. All other reagents including 1, 1, 4, 7, 10, 10-hexamethyl triethylene tetramine (HMTETA) (97%), Tris[2-(dimethylamino)ethyl]amine (Me6TREN) 97%, methyl 2-chloropropionate (97%), CuCl (99%), CuCl2 (99%), 1-thioglycerol (97%) were purchased from Sigma-Aldrich™ (Oakville, ON). A single-side-polished silicon wafer (University Wafer™, Boston, MA) deposited with titanium was prepared by e-beam evaporation of titanium. The process was progressed in a home-assembled Evaporator 2000™ system equipped with a quartz crystal microbalance to monitor the film thickness and a cryo pump to reach high-vacuum (10^−7-10^−6 Torr) condition. After deposition, the substrates were washed with Milli-Q water™, dried via a nitrogen gun, and stored for further usage. SurFlash™I.V. Catheter Cat. #SR*FF1451, #SR*FF2419 (14 Gauge and 24 Gauge) made of polyurethane (PU), were purchased from Terumo™. […] Pure products were finally characterized by analytical reverse phase high performance liquid chromatography (RP-HPLC) and liquid chromatography-mass spectrometry (LC-MS). The broth microdilution method with minor modifications for cationic peptides was used for measuring the MICs of peptides.

P. aeruginosa = test system: P. aeruginosa
From the text: as §1

S. aureus = test system: S. aureus
From the text: as §1

S. saprophyticus = test system: S. saprophyticus
From the text: as §1

E. coli (E38.lux) = experiment: 96-well plate screening of surface conjugated AMPs for biofilm inhibition; assay type: cell-based; details: AMP tethered on BA coating, polypropylene 96-well plate, vs uncoated pp
Experimental: (§2) Screening and Identification of Surface Conjugated AMPs with Anti-Biofilm Activity on a 96-Well Plate Bioluminescence-tagged bacterial strains used in this study included S. aureus (Xen36), P. aeruginosa (PAO1.lux), E. coli (E38.lux), and S. saprophyticus (ATCC 15305). Bacteria were cultured in LB, with shaking at 250 rpm, at 37° C. Bacterial growth was monitored using a spectrophotometer at the optical density of 600 nm (OD600). S. aureus Xen36 was purchased from PerkinElmer Inc.™ while P. aeruginosa PAO1.lux and E. coli E38.lux were generated by conjugating in plasmids that constitutively-expressed lux reporter genes^[40]. The biofilm inhibitory activity of AMPs conjugated onto coated polypropylene surfaces were evaluated in a static microtitre plate assay as previously described with some modifications^[41]. For all experiments, 96-well Costar™ polypropylene plates (Corning™) were used. An overnight culture of selected bacterial strains in LB was diluted to an OD600=0.01 in TSB or basal medium 2 (BM2) supplemented with 0.1% or 0.4% glucose and 0.5 mM MgSO4, (the biofilm growth medium for different bacteria is listed in TABLE 1).
(§3) For inhibition experiments, 100 μL of the diluted overnight culture was added to each well in the plate coated with control coating and AMP coating, respectively. After overnight growth under static condition at 37° C., planktonic cells were removed, adhered biomass rinsed three times with distilled water and subsequently the remaining adhered total biomass was quantified by measuring the luminescence (Total white light) using the Synergy H1™ multimode microtitre plate reader (BioTek™). The remaining adhered S. saprophyticus biomass was quantified using the crystal violet (CV) staining. Briefly, each well was added and incubated with 125 μL of 0.1% (v/v) CV solution for 30 minutes at room temperature with moderate shaking. Then, CV was discarded, and each well was rinsed three times with distilled water. The remaining CV stain was resuspended in 150 μL of 70% ethanol for 30 minutes at room temperature with moderate shaking and then quantified by measuring OD59, using the Synergy H1™ multimode microplate plate reader (BioTek™). The percent biofilm inhibition was calculated in relation to the amount of biofilm grown in the absence of the coating (defined as 100%) and the media sterility control (defined as 0% growth). The experiment was repeated 3 times with 3 technical replicates per biological replicate.

P. aeruginosa (PAO1.lux) = experiment: as above; assay type: cell-based; details: AMP tethered on BA coating, polypropylene 96-well plate, vs uncoated pp
Experimental: as §2, §3

S. aureus (Xen36) = experiment: as above; assay type: cell-based; details: AMP tethered on BA coating, polypropylene 96-well plate, vs uncoated pp
Experimental: as §2, §3

S. epidermidis = experiment: Antimicrobial activity of BA-AMPs coating against planktonic bacteria; assay type: cell-based; details: MHB medium, 24 h, coated PP wells
Experimental: The uhPDMA was prepared at a concentration of 36 mg mL^−1 in sodium acetate buffer (50 mM, pH=5). Dopamine was freshly prepared at a concentration of 12 mg mL^−1 in sodium acetate buffer (50 mM, pH=5) before each experiment. Sodium periodate (NaIO4) was freshly prepared at a concentration of 28 mg mL-1 in sodium acetate buffer (50 mm, pH=5). The dopamine solution was then mixed with uhPDMA solution with a volume ratio of 1:5 (dopamine:uhPDMA). Sodium periodate solution was then added to generate a final concentration of uhPDMA at 30 mg mL^−1, dopamine at 2 mg mL^−1, and NaIO4 at 0.9 mg mL^−1. Mixed solution (200 μL) was added into the wells of 96-well polypropylene plate. The plate was placed onto a rocking platform with shaking at 50 rpm for 2 hr. The coated plate was then rinsed by Milli-Q™ water and dried for further characterization. Peptide solutions (200 μL, 0.25 mg/mL in 10 mM phosphate buffer, pH ˜8) were added into the wells and incubated for 24 h. The peptide-conjugated plate were rinsed with Milli-Q™ water thoroughly and dried under argon flow. […] After 24 hrs growth under shaking condition at room temperature, bacteria culture (100 μL) was transferred to sterile clear polystyrene plate and the optical density was read using UV-vis spectrometer at wavelength 595 nm. […]

RRWRIVVIRVRRC-NH2 [E6, RRWRIVVIRVRRC-NH2]
MIC E. coli (E. coli): 8 µg/mL
MIC P. aeruginosa (P. aeruginosa): 32 µg/mL
MIC S. aureus (S. aureus): 64 µg/mL
MIC S. saprophyticus (S. saprophyticus): 4 µg/mL
reduction of biofilm formation (E. coli (E38.lux)): 91.8%
reduction of biofilm formation (P. aeruginosa (PAO1.lux)): 98.2%
reduction of biofilm formation (S. aureus (Xen36)): 93%
killing of planktonic S. epidermidis (S. epidermidis): complete killing
